Experimental findings from patent publication US20260138978A1, “POSITIVE ALLOSTERIC MODULATORS OF THE MUSCARINIC ACETYLCHOLINE RECEPTOR M1” (Vanderbilt University, priority 2022, published 2026) are described below.

Experiment [1] has as its target T1, human mAChRM1 (Homo sapiens, UniProt P11229).
T1 construct: host or cells: CHO-K1
T1 sequence (P11229 1-460): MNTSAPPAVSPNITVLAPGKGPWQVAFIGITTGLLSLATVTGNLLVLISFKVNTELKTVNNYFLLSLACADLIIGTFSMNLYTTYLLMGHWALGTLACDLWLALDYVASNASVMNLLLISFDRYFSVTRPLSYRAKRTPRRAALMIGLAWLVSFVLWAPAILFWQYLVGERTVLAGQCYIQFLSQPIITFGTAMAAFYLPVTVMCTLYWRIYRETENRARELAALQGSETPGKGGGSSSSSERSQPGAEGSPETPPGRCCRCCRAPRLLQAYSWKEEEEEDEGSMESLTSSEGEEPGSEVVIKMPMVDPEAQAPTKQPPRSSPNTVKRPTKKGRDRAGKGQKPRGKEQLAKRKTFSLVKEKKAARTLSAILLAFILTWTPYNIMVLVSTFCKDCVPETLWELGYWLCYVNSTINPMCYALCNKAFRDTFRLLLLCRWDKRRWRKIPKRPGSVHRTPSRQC
As to the kind of experiment: mAChR M1 cell-based functional assay (calcium mobilization), agonist activity upon compound addition, Emax relative to acetylcholine maximum. In short, it runs like this:
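Emax is given as a percentage of the maximal acetylcholine response, from four-parameter curves of compound-evoked calcium mobilization. Human M1-transfected CHO-K1 cells carried Fluo-4 dye, and compound (11 concentrations, 1:3 steps) was applied at 4 s of a 300 s kinetic fluorescence recording.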
For orientation: Calcium flux is commonly read through the fluorescence of an indicator in the cells.

Experiment [2] concerns the target T1, human mAChRM1. As to the kind of experiment: mAChR M1 cell-based functional assay (calcium mobilization), positive allosteric modulator activity: increase in the EC20 acetylcholine response. Particulars: for Emax: PAM mode; for EC50: increase in the EC20 acetylcholine response, read-out: PAM Activity Human M1 EC50; call rule not given here. In short, it runs like this:
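Potentiation is scored as the rise in an EC20 acetylcholine-evoked calcium signal across 11-point (1:3) compound series, fitted with a four-parameter logistic equation to give EC50 and Emax. Read-out is Fluo-4 fluorescence ratio in hM1-transfected CHO-K1 cells, measured kinetically on FDSS.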

Setting [3] is: calcium mobilization upon compound addition.

Consider `Cc1cnc2c(c1)C(=O)N(Cc1c(F)cc(-c3ccc(C(C)(C)O)c4nn(C)cc34)cc1F)C2` [Compound 174, 6-(2,6-difluoro-4-(7-(2-hydroxypropan-2-yl)-2-methyl-2H-indazol-4-yl)benzyl)-3-methyl-6,7-dihydro-5H-pyrrolo[3,4-b]pyridin-5-one], for which the EC50 at human mAChRM1 [1] (setting [3]) is no less than 10 µM; on human mAChRM1 [2], 0.531 µM. The Emax on human mAChRM1 [1] (relative to the maximum for acetylcholine) was found to be 17%; at human mAChRM1 [2], 80%.
`Cn1cc2c(-c3cc(F)c(CN4Cc5ncc(C6CC6)cc5C4=O)c(F)c3)ccc(C(C)(C)O)c2n1` [Compound 175, 3-cyclopropyl-6-(2,6-difluoro-4-(7-(2-hydroxypropan-2-yl)-2-methyl-2H-indazol-4-yl)benzyl)-6,7-dihydro-5H-pyrrolo[3,4-b]pyridin-5-one]: on human mAChRM1 [1] (setting [3]), the “Agonist Activity Human M1 EC50” value is “inactive”. On human mAChRM1 [2], the maximum response (Emax) stood at 74% and the concentration for a half-maximal effect (EC50) amounted to 2.59 µM.
For `CCc1cnc2c(c1)C(=O)N(Cc1c(F)cc(-c3ccc(C(C)(C)O)c4nn(C)cc34)cc1F)C2` [Compound 176, 6-(2,6-difluoro-4-(7-(2-hydroxypropan-2-yl)-2-methyl-2H-indazol-4-yl)benzyl)-3-ethyl-6,7-dihydro-5H-pyrrolo[3,4-b]pyridin-5-one], in that order: “inactive”, 78% and 1.09 µM.
As for `CC(C)c1cnc2c(c1)C(=O)N(Cc1c(F)cc(-c3ccc(C(C)(C)O)c4nn(C)cc34)cc1F)C2` [Compound 177, 6-(2,6-difluoro-4-(7-(2-hydroxypropan-2-yl)-2-methyl-2H-indazol-4-yl)benzyl)-3-isopropyl-6,7-dihydro-5H-pyrrolo[3,4-b]pyridin-5-one], the “Agonist Activity Human M1 EC50” value on human mAChRM1 [1] (setting [3]) was “inactive”. In addition, on human mAChRM1 [2], the maximal effect (Emax) is 75% and the EC50 amounted to 5.1 µM.

In general, EC50 refers to the concentration at which the effect is half-maximal. The Emax is the greatest response seen or fitted, relative to the assay's reference.
